In test [1] the target is CSF1R phosphorylation in THP-1 cells (Homo sapiens (Human), UniProt P07333). The test is described as follows: Detection of CSF1R phosphorylation activity at cell level (THP-1, M-CSF stimulated, ELISA). It is filed as cell-based. Particulars: p-CSF1R ELISA, compound 60 min, 300 ng/mL M-CSF 1 min. How it is done:
Detection of CSF1R Phosphorylation Activity at Cell Level
THP-1 (ATCC), human acute monocytic leukemia cells. The cells were cultured in an RPMI 1640 medium containing 10% FBS.
(§1) 2. Reagents and instruments
• Human phosphorylation-CSF1R ELISA kit: R&D, #DYC3268-2; • RPMI 1640 culture solution: GIBCO, 910491; • Human M-CSF recombinant cytokine: R&D, 9216-MC-500; • Cell lysis buffer: Cell Signal, 99803S; • 1×PBS buffer (1 L): 8.0 g of NaCl, 0.2 g of KCl, 3.58 g of Na2HPO4-12H2O, 0.24 g of KH2PO4 were dissolved in 1 L of dd H2O, and the pH was adjusted to 7.4; • Blocking solution: PBS buffer containing 1% BSA; • PBST washing liquid: PBS buffer containing 0.05% Tween-20; • Chromogenic substrate: R&D, #DY999; • 2N H2SO4; • Microwell plate reader: Labsystems Multiskan K3: Thermo; Envision: Perkin Elmer; • ELISA plate: Corning, #9018; • Cell culture plate: Facol, #353027. 3. Treatment of cells and preparation of lysis buffer
THP-1 cells were resuspended in RPMI-1640 culture solution containing 2% FBS, and the culture was added to a 96-well plate at a density of 5×10^4/well, 50 μL/well, and cultured in a cell incubator at 5% CO2 and 37° C. overnight; The test compound was diluted with a serum-free RPMI-1640 medium to 3, 1.1, 0.37, 0.12, 0.04, 0.014, 0.005 and 0.002 μM, and the concentration of DMSO was 5%. 5 μL of the diluted compound was added to the 50 μL cell culture system, the culture was cultured in a 5% CO2, 37° C. cell incubator for 60 min, 300 ng/mL of M-CSF was added to the cells, and the mixture was stimulated in the 37° C. cell incubator for 1 min, added 50 μL of cell lysis buffer, and stored in a refrigerator at −80° C.
100 μL/well of the p-CSF1R capture antibody diluted to 0.8 μg/mL with PBS was added to the ELISA plate, and the plate was coated on a shaker at room temperature overnight. The culture was washed with PBST, and then added blocking solution and incubated at room temperature for 2 h. The culture was washed with PBST, added 90 μL of cell lysis buffer, and incubated on a shaker at 25° C. for 2 h. The plate was washed with PBST three times, added 100 μL of anti-p-tyrosine-HRP detection antibody diluted with 0.1% PBS-BSA diluent, and incubated on a shaker at 25° C. for 2 h. The plate was washed with PBST washing liquid, added 100 μL of chromogenic substrate and incubated at room temperature for 10-20 min. The reaction was stopped by adding 50 μL of 2N H2SO4. The optical density signal (450/570 nm) of each well was detected in Labsystems Multiskan K3 or Envision.
wherein • Drug-treated well read-out: indicating the optical density signal of a cell well with the test compound treatment. • Background read-out: indicating the optical density signal of a well without cells but with cell lysis buffer. • Cell well read-out: indicating the optical density signal of a cell well not treated with the compound. 6. Calculation of IC50: obtained by using XL-Fit 5.3 software. 7. Test results
(In general: An ELISA detects its analyte on a solid surface through an enzyme-linked reagent.)

A further test concerns Ba/F3^BCR-FMS-11 cells. As to the kind of experiment: Cell proliferation experiment (Ba/F3^BCR-FMS-11, cckit-8). It is filed as cell-based, mouse. Particulars: Ba/F3^BCR-FMS-11 cell proliferation. How it is done:
Cell Proliferation Experiment
Ba/F3^BCR-FMS-11, mouse primary B lymphocytes stably expressing the BCR-FMS fusion gene. The cells were cultured in an RPMI 1640 medium containing 10% FBS.
as §1
• cckit-8 kit: Dojindo, 9 CK04; • Envision: Perkin Elmer; • Cell culture plate: Facol, 9353027. 3. Experimental steps
The BCR-FMS fusion gene was transfected into Ba/F3 cells, and the cell line Ba/F3^BCR-FMS-11 that stably expresses BCR-FMS and grows depending on CSF-1R was screened. Ba/F3^BCR-FMS-11 cell proliferation experiments is completed by using the Cell Counting kit cckit-8 in a 96-well plate. In a 96-well plate, 5000/well of Ba/F3^BCR-FMS-11 cells were inoculated at 100 μL/well. […] 10 μL of the compound dilutions with the above 8 concentrations were added to the culture cell wells. The culture was incubated in a 37° C. and 5% CO2 cell incubator for 72 hours. 10 μL of Cell Counting kit cckit-8 detection reagent was added to each well, and incubated at 37° C. and 5% CO2 in a cell incubator for another 1 h. The optical density absorption value at 450 nm of each well was detected by using Perkin Elmer Envision instrument.
wherein • Drug-treated well read-out: indicating the optical density signal of a cell well with the test compound treatment. • Cell well read-out: indicating the optical density signal of a cell well not treated with the test compound (only 0.5% DMSO). • Background read-out: indicating the optical density signal of a well with the cell medium. 5. Calculation of IC50: obtained by using XL-Fit 5.3 software. 6. Test results

For test [2], the target named is Recombinant human CSF1R kinase (Homo sapiens (Human), UniProt P07333). It is filed as biochemical. The note with it: Z-LYTE Tyr 1 peptide substrate.
Chain of Recombinant human CSF1R kinase (P07333 20-972): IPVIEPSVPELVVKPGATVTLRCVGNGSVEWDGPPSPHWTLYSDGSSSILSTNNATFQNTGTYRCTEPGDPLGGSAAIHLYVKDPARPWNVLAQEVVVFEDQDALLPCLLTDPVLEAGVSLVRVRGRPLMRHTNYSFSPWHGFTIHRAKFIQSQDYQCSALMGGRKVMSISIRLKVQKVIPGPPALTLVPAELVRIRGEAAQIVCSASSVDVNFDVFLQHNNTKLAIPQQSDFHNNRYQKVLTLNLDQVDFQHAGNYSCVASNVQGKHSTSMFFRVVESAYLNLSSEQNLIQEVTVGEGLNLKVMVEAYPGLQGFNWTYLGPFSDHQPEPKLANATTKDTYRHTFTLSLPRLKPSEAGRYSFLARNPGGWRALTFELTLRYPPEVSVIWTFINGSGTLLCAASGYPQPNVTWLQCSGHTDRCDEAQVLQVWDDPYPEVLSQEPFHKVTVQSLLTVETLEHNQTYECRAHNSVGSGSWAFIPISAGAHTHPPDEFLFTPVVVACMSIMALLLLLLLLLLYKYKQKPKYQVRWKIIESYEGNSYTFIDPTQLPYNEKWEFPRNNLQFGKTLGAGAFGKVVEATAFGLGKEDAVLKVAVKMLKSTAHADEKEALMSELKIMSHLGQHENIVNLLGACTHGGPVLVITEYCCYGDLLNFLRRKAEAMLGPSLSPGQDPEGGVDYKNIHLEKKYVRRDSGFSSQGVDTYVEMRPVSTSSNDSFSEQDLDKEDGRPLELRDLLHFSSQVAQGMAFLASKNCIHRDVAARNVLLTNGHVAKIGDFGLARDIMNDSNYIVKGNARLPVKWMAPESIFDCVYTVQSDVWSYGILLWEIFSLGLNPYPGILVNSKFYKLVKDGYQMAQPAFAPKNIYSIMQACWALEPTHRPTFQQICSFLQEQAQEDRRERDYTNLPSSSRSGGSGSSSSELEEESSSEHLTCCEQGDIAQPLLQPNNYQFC

Chain of CSF1R phosphorylation in THP-1 cells (P07333 20-972): as above

As for `COc1ccc(C(=O)Nc2ccc(Oc3ccnc(-c4cnn(C)c4)c3)cn2)c(=O)n1C` [Compound 3, 6-methoxy-1-methyl-N-(5-((2-(1-methyl-1H-pyrazol-4-yl)pyridin-4-yl)oxy)pyridin-2-yl)-2-oxo-1,2-dihydropyridine-3-carboxamide], the IC50 came out at 63 nM in test [1]; 12 nM in the test with Ba/F3^BCR-FMS-11 cells (Mus musculus, 72 h); 5 nM in test [2].
On the same counts, the results for `Cn1cc(Nc2cc(Oc3cnc(NC(=O)c4cccn(C)c4=O)c(F)c3)ccn2)cn1` [Compound 4, N-(3-fluoro-5-((2-((1-methyl-1H-pyrazol-4-yl)amino)pyridin-4-yl)oxy)pyridin-2-yl)-1-methyl-2-oxo-1,2-dihydropyridine-3-carboxamide] are 28 nM, 60 nM and 66 nM.
In the same order, the values of `Cc1ncc(C(=O)Nc2ccc(Oc3cc(-c4cnn(C)c4)ncn3)cn2)c(=O)n1C` [Compound 5, 1,2-dimethyl-N-(5-((6-(1-methyl-1H-pyrazol-4-yl)pyrimidin-4-yl)oxy)pyridin-2-yl)-6-oxo-1,6-dihydropyrimidine-5-carboxamide] are 11 nM, 47 nM and 22 nM.
On the same counts, the results for `CC(C)n1cccc(C(=O)Nc2ccc(Oc3ccnc(-c4cnn(C)c4)n3)cn2)c1=O` [Compound 6, 1-isopropyl-N-(5-((2-(1-methyl-1H-pyrazol-4-yl)pyrimidin-4-yl)oxy)pyridin-2-yl)-2-oxo-1,2-dihydropyridine-3-carboxamide] are 21 nM, 15 nM and 7 nM.
Take `Cc1ncc(C(=O)Nc2ccc(Oc3ccnc(-c4cnn(C)c4)n3)cn2)c(=O)n1C` [Compound 7, 1,2-dimethyl-N-(5-((2-(1-methyl-1H-pyrazol-4-yl)pyrimidin-4-yl)oxy)pyridin-2-yl)-6-oxo-1,6-dihydropyrimidine-5-carboxamide]: the IC50 in test [1] amounted to 25 nM; with Ba/F3^BCR-FMS-11 cells (Mus musculus, 72 h), 39 nM; in test [2], 67 nM.
In the same order, the values of `Cc1ncc(C(=O)Nc2ccc(Oc3ccnc(-c4cnn(C)c4)c3)cn2)c(=O)n1C` [Compound 8, 1,2-dimethyl-N-(5-((2-(1-methyl-1H-pyrazol-4-yl)pyridin-4-yl)oxy)pyridin-2-yl)-6-oxo-1,6-dihydropyrimidine-5-carboxamide] are 4 nM, 7 nM and 4 nM.
On the same counts, the results for `Cn1cc(-c2cc(Oc3ccc(NC(=O)c4ccc[nH]c4=O)nc3)ccn2)cn1` [Compound 9, N-(5-((2-(1-methyl-1H-pyrazol-4-yl)pyridin-4-yl)oxy)pyridin-2-yl)-2-oxo-1,2-dihydropyridine-3-carboxamide] are 105 nM, 107 nM and 12 nM.
As to `Cn1cc(-c2cc(Oc3ccc(NC(=O)c4cncn(C)c4=O)nc3)ccn2)cn1` [Compound 10], the IC50 in test [1] is 62 nM; with Ba/F3^BCR-FMS-11 cells (Mus musculus, 72 h) it was 88 nM; in test [2] it was 15 nM.
In the same order, the values of `Cn1cc(-c2cc(Oc3ccc(NC(=O)c4cnc5n(c4=O)CCC5)nc3)ccn2)cn1` [Compound 11] are 6 nM, 6 nM and 5 nM.
On the same counts, the results for `Cc1c(F)cc(C(=O)Nc2ccc(Oc3ccnc(-c4cnn(C)c4)c3)cn2)c(=O)n1C` [Compound 12] are 143 nM, 66 nM and 9 nM.
In the same order, the values of `Cc1ncn(C)c(=O)c1C(=O)Nc1ccc(Oc2ccnc(-c3cnn(C)c3)c2)cn1` [Compound 13] are 42 nM, 231 nM and 91 nM.
For `CC(C)n1cccc(C(=O)Nc2ccc(Oc3ccnc(-c4ncn(C)n4)c3)cn2)c1=O` [Compound 15], the IC50 in test [1] was 215 nM; with Ba/F3^BCR-FMS-11 cells (72 hours) it was 493 nM; in test [2], 34 nM.
In the case of `Cc1cnc(Nc2cc(Oc3ccc(NC(=O)c4cnc(C)n(C)c4=O)nc3)ccn2)s1` [Compound 16], the IC50 amounted to 20 nM in test [1]; 45 nM in the test on Ba/F3^BCR-FMS-11 cells (Mus musculus, 72 h); 88 nM in test [2].

A word on the IC50: it is the concentration needed to halve the response being measured.

The record behind these values is patent US12435062B2, “Amide compounds and uses thereof” (HUTCHISON MEDIPHARMA LIMITED, priority 2020, dated 2025).
